Data taken from patent US8088784B2, “4-(3-aminopyrazole) pyrimidine derivatives for use as tyrosine kinase inhibitors in the treatment of cancer” (AstraZeneca AB, priority 2005, dated 2012).

Legend:
human Trk A kinase = molecular target: T1, human Trk A kinase (Homo sapiens, UniProt P04629); assay: Trk A kinase Alphascreen assay; type: biochemical; conditions: HIS-tagged intracellular domain of human Trk A, 70 μM ATP, 20 minutes, room temperature; read-out: Trk inhibitory activity IC50
T1 construct: His; made in house; host or cells: SF9 insect cells
T1 sequence (P04629 442-796): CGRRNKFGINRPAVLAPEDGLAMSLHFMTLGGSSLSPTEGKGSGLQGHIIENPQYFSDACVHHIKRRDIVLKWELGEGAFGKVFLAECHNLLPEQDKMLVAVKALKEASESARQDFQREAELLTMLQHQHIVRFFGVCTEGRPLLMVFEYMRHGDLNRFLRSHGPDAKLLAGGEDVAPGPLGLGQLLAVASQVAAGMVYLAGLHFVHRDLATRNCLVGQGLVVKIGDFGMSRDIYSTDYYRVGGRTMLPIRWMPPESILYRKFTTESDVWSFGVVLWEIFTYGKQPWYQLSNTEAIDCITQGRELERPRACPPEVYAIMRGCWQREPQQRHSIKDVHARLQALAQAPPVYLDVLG
Method: Trk A kinase activity was measured for its ability to phosphorylate synthetic tyrosine residues within a generic polypeptide substrate using an Amplified Luminescent Proximity Assay (Alphascreen) technology (PerkinElmer, 549 Albany Street, Boston, Mass.).
To measure Trk A kinase activity, the intracellular domain of a HIS-tagged human Trk A kinase (amino acids 442-796 of Trk A, Swiss-Prot Primary Accession Number P04629) was expressed in SF9 cells and purified using standard nickel column chromatography. After incubation of the kinase with a biotinylated substrate and adenosine triphosphate (ATP) for 20 minutes at room temperature, the kinase reaction was stopped by the addition of 30 mM ethylenediaminetetraacetic acid (EDTA). The reaction was performed in 384 well microtitre plates and the reaction products were detected with the addition of strepavidin coated Donor Beads and phosphotyrosine-specific antibodies coated Acceptor Beads using the EnVision Multilabel Plate Reader after an overnight incubation at room temperature.

human JAK2 = molecular target: T2, human JAK2 (Homo sapiens, UniProt O60674); assay: JAK2 kinase Alphascreen assay; type: biochemical; conditions: recombinant human JAK2 (aa 808-end), 30uM ATP, 60 minutes, room temperature; read-out: JAK inhibitory activity IC50
T2 construct: human JAK2, amino acids 808-end; His6 (C); purchased Upstate Biotechnology 14-640; host or cells: baculovirus in Sf21 cells
T2 sequence (O60674 808-1132 limits assumed): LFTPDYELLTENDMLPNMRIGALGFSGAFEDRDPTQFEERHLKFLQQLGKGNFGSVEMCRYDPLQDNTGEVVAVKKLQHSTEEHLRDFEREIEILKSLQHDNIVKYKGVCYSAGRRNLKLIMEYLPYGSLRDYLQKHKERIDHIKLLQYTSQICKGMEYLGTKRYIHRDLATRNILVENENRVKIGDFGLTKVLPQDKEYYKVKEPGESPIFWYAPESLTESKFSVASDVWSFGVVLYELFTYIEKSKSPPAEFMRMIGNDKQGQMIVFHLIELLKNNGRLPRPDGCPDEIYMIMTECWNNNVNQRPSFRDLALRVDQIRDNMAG
Method: JAK2 kinase activity was measured for its ability to phosphorylate synthetic tyrosine residues within a generic polypeptide substrate using an Amplified Luminescent Proximity Assay (Alphascreen) technology (PerkinElmer, 549 Albany Street, Boston, Mass.).
To measure JAK2 kinase activity, commercially available purified enzyme, C-terminal His6-tagged, recombinant, human JAK2, amino acids 808-end, (Genbank Accession number NM 004972) expressed by baculovirus in Sf21 cells from Upstate Biotechnology #14-640 was used. After incubation of the kinase with a biotinylated substrate and adenosine triphosphate (ATP) for 60 minutes at room temperature, the kinase reaction was stopped by the addition of 30 mM ethylenediaminetetraacetic acid (EDTA). The reaction was performed in 384 well microtitre plates and the reaction products were detected with the addition of streptavidin coated Donor Beads and phosphotyrosine-specific antibodies coated Acceptor Beads using the EnVision Multilabel Plate Reader after an overnight incubation at room temperature.

| Compound | IC50 (human Trk A kinase) | IC50 (human JAK2) |
| --- | --- | --- |
| CC(C)Oc1cc(Nc2nc(NC(C)c3ncc(F)cn3)ncc2Cl)n[nH]1 (centres unmarked) [Example 1, 5-Chloro-N^4-(5-isopropoxy-1H-pyrazol-3-yl)-N^2-[1-(5-fluoropyrimidin-2-yl)ethyl]pyrimidine-2,4-diamine] | 33 nM | – |
| COc1cc(Nc2nc(N[C@@H](C)c3ncc(F)cn3)ncc2Cl)n[nH]1 [Example 7, 5-Chloro-N^2-[(1S)-1-(5-fluoropyrimidin-2-yl)ethyl]-10-(5-methoxy-1H-pyrazol-3-yl)pyrimidine-2,4-diamine] | – | 3.9 nM |
